Patent publication US20260008760A1, “DIPEPTIDYL PEPTIDASE 1 INHIBITORS AND USES THEREOF” (Insmed Incorporated, priority 2024, published 2026)
“And” between values parts separate entries of the source, which are not always exact repeats. Equal values may be shown once. Read-outs that look alike come from different tables or passages of the source.

Columns and labels:
[1] = target: DPP1 in HL-60 cells (Homo sapiens, UniProt P53634); experiment: DPP1 Cell IC50 assay; format: cell-based; parameters: host or cells: HL-60 cells; conditions: 60 min pre-incubation, H-Gly-Phe-AFC substrate, average of n runs
In short: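 Intracellular DPP1 activity read as AFC fluorescence (Ex/Em 400/505 nm) after 30 min with H-Gly-Phe-AFC (500 μM stock), following 60 min compound pre-incubation at 37° C with HL-60 cells at 5×10^5 live cells per mL in PBS. IC50 by 4-parameter fit against DMSO-only controls.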

[2] = target: T1, active mouse DPP1 enzyme (Mus musculus, UniProt P97821); experiment: Mouse DPP1 Enzyme IC50 Assay; format: biochemical
T1 construct: Each subunit is composed of an N-terminal fragment, a heavy chain and a light chain; purchased R&D Systems
Procedure: Example 96: Mouse DPP1 Enzyme IC50 Assay
Test articles were applied to active mouse DPP1 enzyme (R&D Systems; Minneapolis, MN) in Assay Buffer (50 mM MES pH 5.5, 50 mM NaCl, 5 mM DTT) in a total reaction volume of 125 μL. 25 μL of compound in Assay Buffer plus […] was first added to 50 μL of active mouse DPP1 enzyme at a concentration of 62.5 pg/μL and allowed to pre-incubate for 10 minutes at 37° C. after which 50 μL of […] H-Gly-Arg-AMC substrate (Bachem; St. Torrance, CA) was added, giving final substrate concentration of 400 µM and a final DMSO concentration of […]. Substrate cleavage was measured for 90 minutes at 37° C., with fluorescence at Excitation/Emission 350/450 nm measured every 5 minutes. DPP1 concentration was interpolated based on its activity relative to a standard curve of recombinant active mouse DPP enzyme. IC50 values for each compound were calculated via the XLFit (IDBS Version 5.3.1.3) Add-On to Microsoft Excel using the four parameter fit equation y=(A+((B−A)/(1+((C/x)^D)))), which appears as equation number 205 (4 Parameter Logistic Model or Sigmoidal Dose-Response Model) in XLFit. Default constraints were used for each Parameter. IC50 was defined as the compound concentration at which 50% of enzyme activity was inhibited when compared to the no-compound control.
In Table 2, *** represent average IC50≤5 nM, ** represents average IC50 in the range of 5-20 nM, and * represents average IC50 in the range of ≥20 nM, where the designations were made solely based on the average value without taking into account of the standard deviations.

[3] = target: human DPP1 enzyme (Homo sapiens, UniProt P53634); experiment: Human DPP1 Enzyme IC50 Assay; format: biochemical; parameters: was first proteolytically processed into its mature form using recombinant human cathepsin L; purchased R&D Systems
In short: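 IC50 came from a four-parameter fit of activity relative to no-compound control, with fluorescence (Ex 350/Em 450 nm) read every 5 min for 90 min at 37 °C using 400 μM final H-Gly-Arg-AMC. Cathepsin L-matured human recombinant DPP1 was preincubated 10 min with compound at pH 6.0 (MES, DTT, 1% DMSO).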

[4] = read-out: Avg. IC50 (DPP1 Cell IC50 value ranges)
[5] = active mouse DPP1 enzyme, H-Gly-Arg-AMC substrate, 10 minutes pre-incubation at 37° C., pH 5.5, average of n runs, read-out: Avg. IC50 (Mouse DPP1 enzyme IC50 value ranges)
[6] = activated recombinant human DPP1, 400 μM H-Gly-Arg-AMC, 10 minutes pre-incubation at 37° C., pH 6.0, average of n runs, read-out: Avg. IC50 (Human DPP1 enzyme IC50 value ranges)

T1 sequence (P97821 25-134 limits assumed): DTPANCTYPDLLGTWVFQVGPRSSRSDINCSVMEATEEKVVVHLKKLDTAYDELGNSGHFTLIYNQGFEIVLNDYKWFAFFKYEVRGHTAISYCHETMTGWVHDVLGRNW
T1 sequence (P97821 231-393 limits assumed): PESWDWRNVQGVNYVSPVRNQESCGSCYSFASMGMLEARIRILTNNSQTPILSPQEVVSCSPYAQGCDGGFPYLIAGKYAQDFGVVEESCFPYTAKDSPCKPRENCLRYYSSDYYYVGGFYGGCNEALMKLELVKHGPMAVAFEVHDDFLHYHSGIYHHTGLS
T1 sequence (P97821 394-462 limits assumed): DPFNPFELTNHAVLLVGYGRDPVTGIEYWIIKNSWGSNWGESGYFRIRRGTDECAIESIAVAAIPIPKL
DPP1 in HL-60 cells, sequence (P53634 25-463): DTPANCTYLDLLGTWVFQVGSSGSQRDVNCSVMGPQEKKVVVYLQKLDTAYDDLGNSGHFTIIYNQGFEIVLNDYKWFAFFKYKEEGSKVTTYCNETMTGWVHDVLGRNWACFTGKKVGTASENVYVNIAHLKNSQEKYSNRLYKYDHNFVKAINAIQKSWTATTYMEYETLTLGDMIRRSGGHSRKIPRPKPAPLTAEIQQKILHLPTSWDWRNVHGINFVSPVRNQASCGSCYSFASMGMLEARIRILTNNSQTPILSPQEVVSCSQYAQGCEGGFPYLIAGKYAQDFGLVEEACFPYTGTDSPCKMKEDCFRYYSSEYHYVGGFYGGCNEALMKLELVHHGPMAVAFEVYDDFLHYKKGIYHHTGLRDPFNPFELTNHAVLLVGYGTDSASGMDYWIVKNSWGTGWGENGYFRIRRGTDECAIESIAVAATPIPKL
human DPP1 enzyme, sequence (P53634 25-134 limits assumed): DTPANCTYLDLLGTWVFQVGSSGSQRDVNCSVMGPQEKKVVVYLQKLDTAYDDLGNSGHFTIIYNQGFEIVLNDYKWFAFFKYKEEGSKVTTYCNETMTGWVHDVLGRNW
human DPP1 enzyme, sequence (P53634 231-394 limits assumed): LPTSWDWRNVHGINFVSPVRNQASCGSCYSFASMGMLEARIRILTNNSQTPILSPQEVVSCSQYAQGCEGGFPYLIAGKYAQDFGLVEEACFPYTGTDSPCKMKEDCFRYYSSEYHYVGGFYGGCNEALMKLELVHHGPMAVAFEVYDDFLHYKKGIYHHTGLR
human DPP1 enzyme, sequence (P53634 395-463 limits assumed): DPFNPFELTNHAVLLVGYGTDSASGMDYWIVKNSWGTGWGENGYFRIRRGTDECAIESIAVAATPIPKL

| SMILES | IC50 [1, 4] | IC50 [2, 5] | IC50 [3, 6] | IC50 ([1]; Avg. IC50 (DPP1 Cell IC50 value ranges)) | IC50 [2] | IC50 [3] |
| --- | --- | --- | --- | --- | --- | --- |
| Cc1cn2cc(-c3ccc(C[C@@H](C#N)NC(=O)[C@@H]4CNCCCCO4)cc3)cc2c(C)n1 [Compound A27, (2S)—N-[(1S)-1-cyano-2-(4-{1,3-dimethylpyrrolo[1,2-a]pyrazin-7-yl}phenyl)ethyl]-1,4-oxazocane-2-carboxamide] | > 2.5 nM and 1 to 2.5 nM | > 20 nM | > 15 nM | – | – | – |
| Cc1cn2cc(-c3ccc(C[C@@H](C#N)NC(=O)[C@@H]4CNCCCCO4)c(F)c3)cc2c(C)n1 [Compound A28, (2S)—N-[(1S)-1-cyano-2-(4-{1,3-dimethylpyrrolo[1,2-a]pyrazin-7-yl}-2-fluorophenyl)ethyl]-1,4-oxazocane-2-carboxamide] | 1 to 2.5 nM | > 20 nM | > 15 nM | – | – | – |
| CO[C@@H]1CCNC[C@@H](C(=O)N[C@H](C#N)Cc2ccc(-c3cc4c(C)nc(C)cn4c3)cc2F)OC1 [Compound A47, (2S,7R)—N-[(1S)-1-cyano-2-(4-{1,3-dimethylpyrrolo[1,2-a]pyrazin-7-yl}-2-fluorophenyl)ethyl]-7-methoxy-1,4-oxazocane-2-carboxamide] | 1 to 2.5 nM | < 5 nM | < 5 nM | – | – | – |
| N#C[C@H](Cc1cc2c(cc1F)-c1cc(C3COC3)c(F)cc1CO2)NC(=O)[C@@H]1CNCCCO1 [Compound B2, (2S)—N-{1-cyano-2-[2,8-difluoro-9-(oxetan-3-yl)-6H-benzo[c]chromen-3-yl]ethyl}-1,4-oxazepane-2-carboxamide] | – | – | – | 1 to 2.5 nM | 5 to 20 nM | 5 to 15 nM |
| N#Cc1ccc2c(c1)COc1cc(CC(C#N)NC(=O)[C@@H]3CNCCCCO3)c(F)cc1-2 (stereo partly drawn) [Compound B7, (2S)—N-(1-cyano-2-(8-cyano-2-fluoro-6H-benzo[c]chromen-3-yl)ethyl)-1,4-oxazocane-2-carboxamide] | > 2.5 nM | > 20 nM | > 15 nM | – | – | – |
| N#C[C@H](Cc1cc2c(cc1F)-c1cc(C3COC3)c(F)cc1CO2)NC(=O)[C@@H]1CNCCCCO1 [Compound B10-B] | 1 to 2.5 nM | < 5 nM | 5 to 15 nM | – | – | – |
| CO[C@@H]1CCNC[C@@H](C(=O)N[C@H](C#N)Cc2ccc(-c3ccc(C#N)cc3)cc2F)OC1 [Compound F4, (2S,7R)—N—((S)-1-cyano-2-(4′-cyano-3-fluoro-[1,1′-biphenyl]-4-yl)ethyl)-7-methoxy-1,4-oxazocane-2-carboxamide] | < 1 nM | < 5 nM | < 5 nM | – | – | – |
